The values that follow come from US11376277B2, “Synergistic medicinal compositions for treating dysfunctional D-serine signaling” (CELAGENEX RESEARCH (INDIA) PVT. LTD., priority 2020, dated 2022).

One data set addresses T1, human SR (Homo sapiens, UniProt Q9GZT4).
T1 sequence (Q9GZT4 1-340): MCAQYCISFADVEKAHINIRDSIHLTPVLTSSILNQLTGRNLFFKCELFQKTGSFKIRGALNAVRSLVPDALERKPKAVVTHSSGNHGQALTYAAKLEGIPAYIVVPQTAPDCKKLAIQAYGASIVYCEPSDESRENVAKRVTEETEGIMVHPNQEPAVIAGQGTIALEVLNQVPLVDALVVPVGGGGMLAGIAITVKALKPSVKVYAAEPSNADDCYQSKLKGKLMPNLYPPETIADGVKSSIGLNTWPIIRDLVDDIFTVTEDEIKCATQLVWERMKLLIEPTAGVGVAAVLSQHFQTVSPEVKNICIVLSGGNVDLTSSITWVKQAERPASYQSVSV
The settings on record: cited from earlier work.

In data set [1] the test system is D-serine. Nature of the data set: Pharmacokinetics profile of D-serine in rat model, blood plasma. The settings on record: for ln(C) / Conc / AUC: D-serine in rat plasma; for Conc: doses per Table 1. On the procedure: (§1) To assess and compare the pharmacokinetics profile of D-serine in rat model.
(§2) Six groups were divided into 4 sets of 3 rats each/subset for bleeding and organ (brain) collection—Total 72 rats
Plasma was separated using refrigerated centrifuge & stored in −80° C. before analysis. Blood was collected at time point 0, 2, 6 and 10 hrs at least from 3 rats/group/time point.
(§3) Supernatant was filtered with 0.2 micron amicon syringe filter (Millipore, Hessen, Germany), then directly transferred into auto sampler vials
(§4) An Accela™ ultra-high performance liquid chromatography (UHPLC) system (Thermo Fisher, Waltham, USA), coupled online via heated electrospray ionization source (HESI) with a Q-Exactive-Orbitrap mass spectrometer (Thermo Fisher), was employed for global metabolomics profiling with 1 μL sample injection volume. The metabolites were profiled using a C18 Hypersil Gold column (1.9 μm, 2.1×150 mm, Thermo).
(§5) The temperature of column oven was set at 35° C. and the sample manager was maintained at 4° C. The eluents acetonitrile and water containing 0.1% formic acid were employed in the electrospray ionization-positive (ESI+) mode.
(§6) The area under the plasma concentration time curve (AUC) value was calculated to the last quantifiable sample (AUClast) by using the log-linear trapezoidal rule.

Data set [2] relates to D-serine. Briefly: Pharmacokinetics profile of D-serine in rat model, brain tissue sample. The following applies: for ln(C) / Conc / AUC: D-serine in rat brain tissue; for Conc: doses per Table 1. The procedure: as §1, §2
Organ (Brain) collection: Rats were sacrificed each time point (3 rats/group/time point) by decapitation at 0, 2, 6 or 10 hr post dose. Brain was removed and cerebellum dissected on ice. Tissue samples were frozen on dry ice and stored at −80° C. until analysis.
as §3, §4, §5, §6

Setting [3] is: D-serine, rat plasma, non-compartmental analysis.
Where [4] appears, read: D-serine, rat brain tissue, non-compartmental analysis.

In general, Cmax refers to the peak of the concentration-time curve. A word on the Tmax: it is the time from dosing to the highest level.

Where two headings read alike, the source gives them in different places.

With `[Ca+2]` [Ca′], the “activity of the enzyme relative to purified human SR without divalent cation supplementation” value on human SR (@1 mM) is given as 134%.

As for `N[C@@H](COS(=O)(=O)O)C(=O)O` [L-Serine 0-sulfate, L-Serine O-sulfate, reference compound], the D-Serine over control result in the data set with D-serine [1] (rat, treated with serine racemase inhibitor, 1.86 mg/kg) is reported as “substantially reduced”.

For the compound `[Mg+2]` [Mg^2+], on human SR (@10 μM), the “activity of the enzyme relative to purified human SR without divalent cation supplementation” value was 112%.

Regarding `[Mn+2]` [Mn^2+], at human SR (@10 μM), the “activity of the enzyme relative to purified human SR without divalent cation supplementation” value is listed as 153%.

In the case of “magnesium 2-acetamidoethanesulfonate dihydrate [Test I]”, the “ln(C)” value in the data set on D-serine [1] (Time 0 (pre-dose)) is recorded as −0.3877; in the data set with D-serine [1] (Time 2 hr), −0.4986; in the data set with D-serine [1] (Time 6 hr), −0.6686; in the data set with D-serine [1] (Time 10 hr), −0.85; in the data set on D-serine [2] (Time 0 (pre-dose)), −0.8701; in the data set with D-serine [2] (Time 2 hr), −0.981. In addition, the “ln(C)” value is reported as −1.151 in the data set on D-serine [2] (Time 6 hr) and −1.332 in the data set with D-serine [2] (Time 10 hr). The Conc in the data set on D-serine [1] (Time 0 (pre-dose)) is listed as 0.6786; in the data set on D-serine [1] (Time 2 hr) it was 0.6074; in the data set on D-serine [1] (Time 6 hr), 0.5124; in the data set with D-serine [1] (Time 10 hr), 0.4274; with D-serine [2] (Time 0 (pre-dose)) it was 0.4189; in the data set on D-serine [2] (Time 2 hr), 0.3749. In addition, the results for the Conc in the data set with D-serine [2] (Time 6 hr) and with D-serine [2] (Time 10 hr) were 0.3163 and 0.2638, respectively. Further, the AUC in the data set on D-serine [1] (cumulative to Time 2 hr) is given as 1.286; in the data set with D-serine [1] (cumulative to Time 6 hr), 3.5256; in the data set on D-serine [2] (cumulative to Time 2 hr), 0.7938; with D-serine [2] (cumulative to Time 6 hr), 2.176. In addition, the figures for the “AUC 0-inf_obs” value in the data set with D-serine [1] (setting [3]) and with D-serine [2] (setting [4]) were 11130 ng·h/mL and 7342 ng·h/mL, respectively. In addition, the “AUMC 0-inf_obs” value in the data set on D-serine [1] (setting [3]) was found to be 343.2 μg/ml*h^2; in the data set with D-serine [2] (setting [4]) it was 211.9 μg/ml*h^2. For the same compound, the Cl/F_obs is recorded as 2.39 (mg)/(μg/ml)/h in the data set with D-serine [1] (setting [3]) and 3.872 (mg)/(μg/ml)/h in the data set on D-serine [2] (setting [4]). Further, the Cmax is 678.6 ng/mL with D-serine [1] (setting [3]) and 418.9 ng/mL with D-serine [2] (setting [4]). In addition, the “MRT 0-inf_obs” value with D-serine [1] (setting [3]) and with D-serine [2] (setting [4]) was 22.68 h in each case. Further, the Tlag in the data set with D-serine [1] (setting [3]) and in the data set with D-serine [2] (setting [4]) was 0 h in each case. For the same compound, the Tmax with D-serine [1] (setting [3]) and in the data set on D-serine [2] (setting [4]) was 0 h each time. Besides, the Vz/F_obs was 54.4 (mg)/(μg/ml) in the data set with D-serine [1] (setting [3]) and 88.12 (mg)/(μg/ml) in the data set with D-serine [2] (setting [4]). Further, the t1/2 in the data set with D-serine [1] (setting [3]) and with D-serine [2] (setting [4]) was 15.78 h each time. In addition, the “AUC 0-t” value in the data set on D-serine [1] (D-serine, rat plasma, non-compartmental analysis, 0-10 hr) was found to be 3405.2 ng·h/mL; with D-serine [2] (D-serine, rat brain tissue, non-compartmental analysis, 0-10 hr) it was 2137 ng·h/mL. Further, the Lambda_z in the data set on D-serine [1] (D-serine, rat plasma, non-compartmental analysis, extravascular input) was 0.04393 L/h; with D-serine [2] (D-serine, rat brain tissue, non-compartmental analysis, extravascular input), 0.04393 L/h. In addition, the “AUC values of D-serine” value in the data set with D-serine [1] (rat plasma, G4 36.17 mg/kg, G5 31.01 mg/kg) was “increased”; in the data set with D-serine [2] (rat brain tissue samples, G4 36.17 mg/kg, G5 31.01 mg/kg) it was “increased”.
